Assay [1] deals with T1, full length recombinant Pim-1 protein (Homo sapiens, UniProt P11309).
T1 construct: by full length recombinant Pim-1, Pim-2, or Pim-3 protein; hexahistidine tag followed by a thrombin cleavage site (N); made in house; host or cells: Sf9 (baculovirus) or E. coli (pET28)
Put plainly: Pim-1 enzyme assay (HTRF, phosphorylation of biotinylated-BAD (S112) peptide). The format is biochemical. The following applies: read-out: Pim_1_IC50. A digest of the protocol: (§1)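 Kinase: full-length human Pim-1/Pim-2, His6-thrombin tagged. Substrate biotin-BAD (S112) peptide. Buffer 60 mM Hepes pH 7.0, 0.05% BSA, 2 mM DTT. Stop 3 mM EDTA. Detection HTRF (Eu anti-pBAD/SA-APC). IC50 by 4-parameter logistic on POC.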
(In TR-FRET formats the signal depends on donor and acceptor labels being close together.)

Assay [2] has as its target T2, full length recombinant Pim-2 protein (Homo sapiens, UniProt Q9P1W9).
T2 construct: by full length recombinant Pim-1, Pim-2, or Pim-3 protein; hexahistidine tag followed by a thrombin cleavage site (N); made in house; host or cells: Sf9 (baculovirus) or E. coli (pET28)
As to the kind of experiment: Pim-2 enzyme assay (HTRF, phosphorylation of biotinylated-BAD (S112) peptide). It counts as biochemical. Conditions: read-out: Pim2_IC50. The essentials:
as §1

The target of assay [3] is T3, Pim-1 stably transfected into the U2OS human osteogenic sarcoma line (Homo sapiens, UniProt P11309).
T3 construct: expressed in transfected cells; host or cells: U2OS human osteogenic sarcoma line
T3 sequence (P11309 whole entry): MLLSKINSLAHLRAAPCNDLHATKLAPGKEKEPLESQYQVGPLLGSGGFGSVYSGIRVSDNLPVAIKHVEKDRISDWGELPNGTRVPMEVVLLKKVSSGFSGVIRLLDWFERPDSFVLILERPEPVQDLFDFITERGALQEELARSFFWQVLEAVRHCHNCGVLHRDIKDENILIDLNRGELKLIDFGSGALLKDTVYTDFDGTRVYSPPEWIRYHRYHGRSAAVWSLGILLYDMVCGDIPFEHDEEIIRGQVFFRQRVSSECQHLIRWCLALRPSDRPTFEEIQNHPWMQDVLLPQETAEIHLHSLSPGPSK
Put plainly: Pim cell assay, phospho-BAD normalized against total BAD, U2OS stably transfected with Pim-1. The format is cell-based. Conditions: U2OS stably transfected with Pim-1; phospho-BAD normalized against total BAD; 29 min incubation; read-out: Pim1_Cell_IC50_. The essentials:
(§2)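 U2OS cells stably expressing Pim-1 or Pim-2 were plated overnight at 37 °C, then dosed over a 10-point curve (final 0.3% DMSO; DMSO alone as high control). Lysates assayed for phospho- and total BAD by Meso Scale immunoassay; % phosphoprotein = (2×phospho)/(phospho+total)×100.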

In assay [4] the target is T4, Pim-2 stably transfected into the U2OS human osteogenic sarcoma line (Homo sapiens, UniProt Q9P1W9).
T4 construct: expressed in transfected cells; host or cells: U2OS human osteogenic sarcoma line
T4 sequence (Q9P1W9 whole entry): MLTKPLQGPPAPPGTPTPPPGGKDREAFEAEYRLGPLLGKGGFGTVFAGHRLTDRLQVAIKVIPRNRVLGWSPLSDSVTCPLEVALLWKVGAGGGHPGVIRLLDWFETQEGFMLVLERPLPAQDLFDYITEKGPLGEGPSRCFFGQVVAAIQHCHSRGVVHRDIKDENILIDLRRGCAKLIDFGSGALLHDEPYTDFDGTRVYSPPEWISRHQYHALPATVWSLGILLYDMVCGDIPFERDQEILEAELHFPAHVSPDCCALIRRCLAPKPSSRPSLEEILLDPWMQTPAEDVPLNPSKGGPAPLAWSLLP
As to the kind of experiment: Pim cell assay, phospho-BAD normalized against total BAD, U2OS stably transfected with Pim-2. Conditions: U2OS stably transfected with Pim-2; phospho-BAD normalized against total BAD; 29 min incubation; read-out: Pim2_Cell_IC50_. The format is cell-based. A digest of the protocol: as §2

Another assay concerns KMS-Cell. As to the kind of experiment: KMS cell IC50 (Table 4). The following applies: KMS cells. It counts as cell-based.

SMILES strings stand for the structures.

T2 sequence (Q9P1W9 whole entry): as above
T1 sequence (P11309 whole entry): as the sequence (P11309 whole entry) above

As for `CC1CCNCC1Oc1cncc(-c2n[nH]c3ccc(-c4c(F)cccc4F)cc23)n1` (single isomer, unassigned) [Example 424], the IC50 in assay [1] is 1 nM; in assay [2], 4 nM; in assay [3], 433 nM; in assay [4], 2470 nM; in the assay on KMS-Cell it was 6280 nM.
As for `O=c1cc(-c2n[nH]c3ccc(-c4c(F)cccc4F)cc23)nc(N[C@@H]2CCCNC2)[nH]1` [Example 282, (R)-6-(5-(2,6-difluorophenyl)-1H-indazol-3-yl)-2-(piperidin-3-ylamino)pyrimidin-4(3H)-one], the IC50 in assay [3] is 1170 nM; in assay [4], over 10000 nM; with KMS-Cell it was 2650 nM.
With `c1cc2[nH]nc(-c3cncc(OC4CCNCC4)n3)c2cc1-c1cncc(C2CC2)n1` [Example 364, 5-(6-cyclopropyl-2-pyrazinyl)-3-(6-(4-piperidinyloxy)-2-pyrazinyl)-1H-indazole], the IC50 worked out at 5 nM in assay [2], 22 nM in assay [3], 3460 nM in assay [4] and 5850 nM with KMS-Cell.
`Clc1ccccc1-c1ccc2[nH]nc(-c3cncc(O[C@H]4CNCCC45CC5)n3)c2c1` [Example 406]: the IC50 was 2 nM in assay [1]; 1 nM in assay [2]; 460 nM in assay [3]; 5310 nM in assay [4]; 2360 nM with KMS-Cell.
With `N#Cc1ccc(-c2ccc3[nH]nc(-c4cncc(O[C@H]5CNCCC56CC6)n4)c3c2)c(F)c1` [Example 456], the IC50 in assay [1] is 4 nM; in assay [2] it was 3 nM; with KMS-Cell, 5490 nM.
Regarding `NS(=O)(=O)c1ccc(-c2ccc3[nH]nc(-c4cncc(O[C@H]5CNCCC56CC6)n4)c3c2)c(F)c1` [Example 463], the values for the IC50 (in assay [1]; in assay [2]; with KMS-Cell) were 2 nM, 1 nM and 1610 nM, respectively.
Consider `CS(=O)(=O)c1cc(F)c(-c2ccc3[nH]nc(-c4cncc(O[C@H]5CNCCC56CC6)n4)c3c2)c(F)c1` [Example 467], for which the results for the IC50 (in assay [1]; in assay [2]; with KMS-Cell) were 3 nM, 3 nM and 546 nM, respectively.
As to `COC(=O)c1ccc2[nH]nc(-c3ccnc(NC4CCNCC4)n3)c2c1` [Example 489], the IC50 in assay [1] was 2 nM; in assay [2], 3 nM; in assay [3] it was 202 nM; in assay [4], 4480 nM; in the assay on KMS-Cell it was 1690 nM.
Turning to `COC(=O)c1ccc2[nH]nc(-c3ccnc(N4CCC(N)CC4)n3)c2c1` [Example 491], the IC50 in assay [1] turned out to be 4 nM; in assay [2] it was 8 nM; in the assay with KMS-Cell, 1450 nM.
For `O=C(O)c1ccc2[nH]nc(-c3cncc(N[C@@H]4CCCNC4)n3)c2c1` [Example 495], in that order: 70 nM, 159 nM and over 15800 nM.
Turning to `CN(C)c1nc(-c2c[nH]c3ccc(-c4cncc(C5CC5)n4)cc23)cc(=O)[nH]1` [Example 527], the IC50 in assay [1] is 13 nM; in assay [2], 79 nM; in assay [3], 354 nM; in assay [4], over 31600 nM; in the assay on KMS-Cell, over 15800 nM.
For `O=c1cc(-c2n[nH]c3ccc(-c4c(F)cccc4F)cc23)nc(O[C@@H]2CCCNC2)[nH]1` [Example 529], the IC50 in assay [1] was 2 nM; in assay [2], 2 nM; in the assay on KMS-Cell, 2620 nM.
In the case of `c1coc(-c2ccc3[nH]nc(-c4cncc(N[C@@H]5CCCNC5)n4)c3c2)n1` [Example 541], the IC50 in assay [1] amounted to 2 nM; in assay [2] it was 24 nM; in the assay with KMS-Cell it was 6040 nM.
For the molecule `c1coc(-c2ccc3[nH]cc(-c4cncc(N[C@@H]5CCCNC5)n4)c3c2)n1` [Example 542], the IC50 in assay [1] came to 2 nM; in assay [2], 24 nM; in the assay with KMS-Cell, 15900 nM.
Take `O=c1cc(-c2n[nH]c3ccc(-c4c(F)cccc4F)cc23)nc(OC2CNCCC2F)[nH]1` (stereo not drawn) [Example 554]: the IC50 turned out to be 7 nM in assay [1], 10 nM in assay [2] and 6260 nM in the assay with KMS-Cell.

The record behind these values is patent US9090593B2, “Bicyclic compounds as Pim inhibitors” (AMGEN INC., priority 2010, dated 2015).
